# Article PMC10690091 (Cancer Research, 2023)
# Experiments:
# [1] = target: T1, ER in Ishikawa endometrial cancer cell line (Homo sapiens, UniProt P03372); assay: ER degradation and agonism (PgR expression) in Ishikawa cells; format: cell-based
# T1 sequence (P03372 1-595): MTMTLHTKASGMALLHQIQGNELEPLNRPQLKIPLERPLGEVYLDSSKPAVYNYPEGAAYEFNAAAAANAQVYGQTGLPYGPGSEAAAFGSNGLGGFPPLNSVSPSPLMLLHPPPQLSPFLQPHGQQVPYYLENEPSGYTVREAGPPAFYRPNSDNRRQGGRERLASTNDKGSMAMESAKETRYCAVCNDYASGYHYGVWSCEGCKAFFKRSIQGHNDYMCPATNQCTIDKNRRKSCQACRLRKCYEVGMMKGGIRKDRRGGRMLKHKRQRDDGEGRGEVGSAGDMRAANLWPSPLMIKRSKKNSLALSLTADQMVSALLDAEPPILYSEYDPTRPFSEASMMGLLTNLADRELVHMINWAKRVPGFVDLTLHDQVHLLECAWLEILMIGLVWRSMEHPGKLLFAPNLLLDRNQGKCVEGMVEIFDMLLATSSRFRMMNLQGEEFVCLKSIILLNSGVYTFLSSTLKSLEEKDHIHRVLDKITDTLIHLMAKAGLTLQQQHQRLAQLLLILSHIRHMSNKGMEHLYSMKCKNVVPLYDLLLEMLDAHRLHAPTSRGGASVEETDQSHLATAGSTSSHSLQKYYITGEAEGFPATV
# Procedure: Cells were seeded into 12-well tissue culture-treated plates (0.5×10^6 cells/well) in phenol red-free RPMI medium containing 5% (v/v) charcoal-stripped FBS.
# Cell lysates were loaded on NuPAGE 4% to 12% Bis-Tris Midi Protein Gels, transferred to nitrocellulose membranes and immunoblotted with anti-ER antibody (clone SP1, Thermo Fisher Scientific). To detect ER agonism, Ishikawa cells were incubated in media containing 5% (v/v) double charcoal-stripped FBS, achieved by stripping FBS using activated charcoal (C9157, Sigma). Blots were probed with anti-PgR antibody (clone 636, Dako) then horseradish peroxidase secondary antibody (anti-mouse, 7076 Cell Signaling Technology or anti-rabbit, 7070 Cell Signaling Technology). Protein levels were measured on the G-box using Pierce West Dura and West Femto chemiluminescent reagents and Syngene software.
# [2] = system: ER transcriptional activity; assay: RNA-seq ER-regulated gene expression in MCF7 and CAMA-1 cells; format: cell-based, human; settings: 100 nmol/L + 1 nmol/L estradiol, 24 hours
# Procedure: MCF7 and CAMA-1 cells were seeded into 6-well microplates in phenol red-free RPMI-1640 medium (Invitrogen) containing 2 mmol/L L-glutamine and 5% (volume/volume, v/v) charcoal-stripped FBS (Sigma). […] Samples were harvested in 1 mL of QIAzol lysis buffer and snap-frozen. Snap-frozen tissue from PDX studies was homogenized and resuspended in QIAzol lysis buffer. RNA was extracted using RNeasy 96 QIAcube HT total RNA Cell with DNAse treatment, and samples randomized over 96-well plates. RNA was quantified using the Qubit RNA BR kit (Q10213 Invitrogen), per the manufacturer's instructions.
# […], RNA integrity was analyzed on a TapeStation 4200 using the RNA 6000 Nano Kit (5067 1511, Agilent), according to the manufacturers’ instructions. The Illumina Truseq stranded mRNA library was generated by the Cancer Research UK Cambridge Institute Genomic core facility, and sequencing of cell lines was performed on the Illumina Hiseq4000 platform, providing single-end 50 base pair reads and around 20 million reads per sample. PDX samples were sequenced using Illumina NovaSeq600, providing paired-end 100 base pair reads and around 34 million reads per sample.
# Quality control and gene expression quantification of RNA sequencing (RNA-seq) were performed using the RNA-seq pipeline implemented in bcbio-nextgen (https://bcbio-nextgen.readthedocs.org/en/latest/). Reads were aligned to the University of California (Santa Cruz, CA) Homo sapiens GRCh38 genome build, augmented with transcript information from Ensembl release 86 using HiSat2 ([31]). Alignments were evaluated for evenness of coverage, ribosomal RNA content, genomic context of alignments, and complexity, using a combination of FastQC, Qualimap, and custom computational tools ([32]). Transcripts per million measurements per isoform were generated by quasi-alignment using Salmon and were used to estimate the abundance of genes ([33]). The aggregated gene counts were used for differential gene expression analyses using DESeq2 ([34]).
# CAMA-1 cells = assay: Sytox Green proliferation assay, CAMA-1; format: cell-based, human; settings: 7-day proliferation
# Procedure: MCF7 and CAMA-1 cells were seeded into 96-well microplates in phenol red-free RPMI-1640 medium containing 2 mmol/L L-glutamine and 5% (v/v) charcoal-stripped FBS at 4×10^3 and 8×10^3 cells/well, based on the doubling time of each cell line. Plates were incubated for 24 hours (37°C; 5% CO2) and a 10-point concentration range of selected compounds was dispensed onto the cells. Dimethyl sulfoxide (DMSO) was dispensed into control wells to give a 0.1% final concentration. One plate was untreated, as a day 0 control. […] were counted at days 0 and 7 (or day 6 for Y537S ESR1m MCF7 cells) using Sytox Green nucleic assay stain (180 nmol/L per well). Green (dead) cells were counted at days 0 and 7 using an Acumen Explorer (TTP Labtech) or Cellinsight imager (Thermo Fisher Scientific). Saponin 0.045% (weight/volume) was added to permeabilize the cells overnight, permitting total cell count. The number of live cells was calculated by subtracting dead cells from the total cell count, and curve-fitted using GraphPad Prism. Average cell counts from the day 0 plate were used to determine 0% cell growth. A dose–response curve was plotted using non-linear regression to determine the IC50 and bottom-of-curve values. Viability assay methods are described in Supplementary Methods.
# ST3632 ESR1wt PDX = assay: Efficacy in ST3632 PDX model; format: in vivo, mice; settings: oral camizestrant 10 mg/kg daily, palbociclib 50 mg/kg daily, abemaciclib 50 mg/kg daily
# [3] = system: MCF7 palbociclib-resistant cell lines (PC1, PC6, PC8); assay: Cell Titer Glo viability in palbociclib-resistant MCF7 lines; format: cell-based, human; settings: 7 days
# Procedure: B) Viability of CTC174 PDX-derived […]
# organoids treated with the indicated drugs for 144 hours. Mean ± standard error of the mean (one experiment using six independent CTC174 organoid lines in three technical replicates). P values were calculated using two-tailed paired t tests of biological replicates. C) Immunoblots of CTC174 PDX tumors and quantification of ER, pS6, S6, or PCNA following treatment. Mean ± standard deviation (n=5). p values were calculated using ANOVA tests. D) Genetic backgrounds for cell lines with putative mechanism of resistance to palbociclib indicated for each cell line. Combination matrix plots […]
# palbociclib or abemaciclib at indicated doses for 7 days using Cell Titer Glo viability assay. Values represent measured cell viability normalized to Day 0 (treatment day) and dimethyl sulfoxide control at Day 7. […]
# protein levels measured by western blot. […]
# dependent kinase 4/6 (inhibitor); Ctrl, control; del, deletion; ER, estrogen receptor; ESR1, estrogen receptor 1 gene; Everol, everolimus; MCL1, induced myeloid leukemia cell differentiation protein; mut, mutation; nd, not determined; Palbo, palbociclib; PCNA, proliferating cell nuclear antigen; PDX, patient-derived xenograft; PgR, progesterone receptor; PIK3CA, phosphatidylinositol 3-kinase subunit α; Rb, retinoblastoma; S6, Ribosomal protein S6; veh, vehicle; wt, wild-type […]
# An untreated plate was read on […]
# ST1799/HI/PBR PDX = assay: Efficacy in palbociclib-resistant ST1799/HI/PBR PDX model; format: in vivo, mice; settings: camizestrant 10 mg/kg daily, palbociclib 50 mg/kg, abemaciclib 50 mg/kg, capivasertib 130 mg/kg, 40 days
# Procedure: For all PDX models, tumors were measured twice weekly; changes in tumor volume and growth inhibition were determined by bilateral Vernier caliper measurement (length x width). Length was the longest diameter across the tumor and width the corresponding perpendicular.
# For efficacy studies, animals were randomized into treatment groups and dosing started once tumor volume reached 150–300 mm^3. Details of efficacy studies, and group sizes and treatments are described in corresponding figure legends. PDX models in Fig. 6 and Supplementary Fig. S1 were part of the multi-arm study (with arms irrelevant to this publication) with common control monotherapy arms (e.g., the vehicle-treated group).
# (TV) was calculated using the formula: TV (mm3) = (3.142 x max (length:width) x min […]
# established tumors were removed from two donor mice and dissected into 3x3x3 mm pieces in RPMI 1640 media. […] TV was calculated as TV (mm3) = width2 x length x 0.52.
# For the combination studies in the CTC174 PDX model (hormone-independent), established tumors were removed from donor mice and dissected into 3x3x3 mm pieces in RPMI 1640 media. […] TV was calculated using the formula: TV (mm3) = (3.142 x max (length:width) x min (length:width) x min (length:width))/6,000, or (mm3) = width2 x length x 0.52 for the CTC174 study. […]
smiles,measurement,setting,value
C[C@@H]1Cc2c([nH]c3ccccc23)[C@@H](c2c(F)cc(/C=C/C(=O)O)cc2F)N1CC(C)(C)F [AZD9496],ER agonism (PgR expression as a marker),[1],evident in endometrial in vitro and in vivo models
same,estradiol-driven gene expression (ER transcriptional activity),[2],antagonized all estradiol-driven gene expression
same,cell growth inhibition,CAMA-1 cells,weaker antiproliferative effects
"CCN1CCN(Cc2ccc(Nc3ncc(F)c(-c4cc(F)c5nc(C)n(C(C)C)c5c4)n3)nc2)CC1 [abemaciclib, reference compound]",reduction of relative TV compared with the vehicle,ST3632 ESR1wt PDX,46%
same,sensitivity of palbociclib-resistant lines,[3],sensitive
"NC1(C(=O)N[C@@H](CCO)c2ccc(Cl)cc2)CCN(c2nc[nH]c3nccc2-3)CC1 [capivasertib, reference compound]",tumor growth,ST1799/HI/PBR PDX,could not completely arrest tumor growth
CC(=O)c1c(C)c2cnc(Nc3ccc(N4CCNCC4)cn3)nc2n(C2CCCC2)c1=O [palbociclib],reduction of relative TV compared with the vehicle,ST3632 ESR1wt PDX,0%
